Consider two compounds from patent US20100120762A1, “Triazine derivatives as inhibitors of phosphodiesterases” (WYETH, priority 2008, published 2010).

As a reminder, the IC50 is the point on the concentration scale where inhibition reaches its midpoint. The term melting point denotes the temperature of the solid-liquid transition.

Data set [1] concerns mice. Put plainly: Forced swim test. Type of data set: in vivo, mouse. The conditions noted are these: immobility recorded during last 4 min of 6 min, FIG. 1. The protocol: The forced swim test is an established animal model of depression (Yacoubi et al., 2001). Mice which are forced to swim in a restricted area from which they cannot escape will rapidly cease attempts to escape and adopt a characteristic immobile posture which can be readily identified and timed. Immobility is taken as depression-related behaviour in the animal (Porsolt, 1979). For the test a glass cylinder (height: 20 cm, internal diameter: 15 cm) containing 11 cm water maintained at 23° C. is used. On the day of experiment the mice are forced to swim in the water for 6 min and the immobility time is recorded during the last 4 min of the 6-min-period. Afterwards animals are removed from the water, dried with a paper towel and put under infrared light. […] Results are analyzed by t-test (two groups) or one way analysis of variance (ANOVA) when several groups are compared. Tukey test is used for individual comparison. P<0.05 is regarded as significant.

Another data set deals with Female Wistar-rats. Description: Novel object recognition test. It counts as in vivo, rat. Conditions: MK-801 0.025 mg/kg intraperitoneally, compound given orally 30 min prior to the test session, FIG. 3. On the procedure: The novel object recognition is an animal model of learning and memory (Rutten et al., 2006a, 2006b).
The novel object recognition is performed in glass aquaria (40×60×40 cm) that have 3 black walls and one transparent wall. The floor consists of black, antislip PVC. Objects of different material (iron, plastic, coated hardwood) and forms and similar size are used for the experiment. The objects are positioned 10 cm from the wall and 35-40 cm from each other. Female Wistar-rats are used for this experiment.
One day before the experiment rats have 15 min to habituate to the arena and two objects.
On the first day of the experiment rats are placed into the arena and have five min to explore two equal objects. To disturb the learning process, MK-801 at 0.025 mg/kg is administered intraperitoneally on the first day of the experiment 30 min before the test starts.
On the second day of the experiment (24 h later) rats are again placed into the arena and have 5 min to explore one of the old objects and a novel object. […]
The following parameters are recorded: • 1. the time the rats spent with each object on the first day • 2. the time the rats spent with each object on the second day • 3. percent of time rats spent with the novel object on the second day […]
Results are analyzed by t-test (two groups) or one way analysis of variance (ANOVA) when several groups are compared. […]

The target of the next data set is T1, PDE2A (NM002599) (Homo sapiens, UniProt O00408).
T1 construct: made in house; host or cells: baculovirus / SF21 insect cells
T1 sequence (O00408 whole entry): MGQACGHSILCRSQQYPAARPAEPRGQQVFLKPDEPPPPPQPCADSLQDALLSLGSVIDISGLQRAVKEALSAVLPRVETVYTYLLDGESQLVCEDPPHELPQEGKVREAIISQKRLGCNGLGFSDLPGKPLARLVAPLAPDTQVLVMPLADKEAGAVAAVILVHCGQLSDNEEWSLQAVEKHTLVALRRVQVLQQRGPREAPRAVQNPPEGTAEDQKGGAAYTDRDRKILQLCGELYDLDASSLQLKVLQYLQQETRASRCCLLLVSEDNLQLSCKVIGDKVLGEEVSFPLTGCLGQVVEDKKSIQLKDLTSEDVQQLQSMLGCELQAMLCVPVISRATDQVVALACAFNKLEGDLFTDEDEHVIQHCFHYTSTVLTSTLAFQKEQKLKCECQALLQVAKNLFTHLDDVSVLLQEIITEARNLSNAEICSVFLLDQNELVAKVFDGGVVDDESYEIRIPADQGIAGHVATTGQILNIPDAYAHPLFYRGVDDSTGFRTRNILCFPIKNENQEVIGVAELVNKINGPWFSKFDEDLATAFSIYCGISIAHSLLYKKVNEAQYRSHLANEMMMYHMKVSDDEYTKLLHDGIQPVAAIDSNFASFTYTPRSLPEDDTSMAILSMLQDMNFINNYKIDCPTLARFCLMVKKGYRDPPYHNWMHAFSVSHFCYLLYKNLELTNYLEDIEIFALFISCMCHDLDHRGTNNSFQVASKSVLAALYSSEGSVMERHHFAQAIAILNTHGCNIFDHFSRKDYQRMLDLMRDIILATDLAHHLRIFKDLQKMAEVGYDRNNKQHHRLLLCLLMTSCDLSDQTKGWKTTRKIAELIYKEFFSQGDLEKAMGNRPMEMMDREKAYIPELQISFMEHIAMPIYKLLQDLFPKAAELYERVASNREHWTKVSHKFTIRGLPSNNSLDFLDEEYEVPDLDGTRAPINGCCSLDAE
Description: Inhibition of recombinant PDE2A (expressed in baculovirus/SF21-cells). Type of data set: biochemical. Conditions: recombinant PDE2A, 0.5 μM [3H]-cAMP, 1000 nM cGMP, 37° C., 30 minutes, SPA; read-out: PDE2A IC50. The essentials: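 Human PDE2A membrane fraction from baculovirus-infected SF21 cells; 0.5 μM [3H]-cAMP with 1000 nM cGMP as activator in 50 mM Tris-HCl/5 mM MgCl2 pH 7.4, 30 min at 37° C, SPA read-out. Non-specific activity measured without cGMP; IC50 by 2-parameter Hill fit.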

The subject of data set [2] is mice. Put plainly: Light and dark box test. Type of data set: in vivo, mouse. Conditions: 5 min exploration, FIG. 2. From the text:
The light and dark box is an established animal model of anxiety (Crawley, 1985). The light and dark box consists of two chambers (each 30×30 cm) that are connected by an opening. There is an aversive chamber with white walls that is brightly lit (600 lux) and a dark chamber with black walls that is only lit by an infrared lamp ([…]). Untreated mice predominately stay in the dark chamber whereas mice treated with an anxiolytic compound go more often into the light chamber resulting in an increased number of transitions between the boxes and increased time in the light box. In addition the distance traveled in the dark chamber is regarded as an activity-related parameter. For the experiment, mice are placed in the light box after the pre-treatment time. Recording time starts when the mouse enters the dark box for the first time. Then the animal has 5 min to explore the two chambers. The behavior of the mice is recorded by video and analyzed by VideoMot 2 (TSE systems, Germany). […] Results are analyzed by t-test (two groups) or one way analysis of variance (ANOVA) when several groups are compared. Tukey test is used for individual comparison. P<0.05 is regarded as significant.

Another data set has as its target T2, PDE10A1 (AB 020593) (Homo sapiens, UniProt Q9Y233).
T2 construct: made in house; host or cells: baculovirus / SF21 insect cells (gene synthesized by Entelechon GmbH)
Put plainly: Inhibition of recombinant PDE10A (baculovirus/SF21 system). Conditions: recombinant cytosolic PDE10A, 0.1 μM [3H]-cAMP, 37° C., 30 minutes, SPA; read-out: PDE10A IC50. It counts as biochemical. The method in brief:
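Cytosolic PDE10A1 expressed in SF21 cells via baculovirus, incubated with 0.1 μM [3H]-cAMP in 50 mM Tris-HCl/5 mM MgCl2, pH 7.4, 30 min at 37 °C. SPA-bead scintillation read-out, with enzyme-free wells as background. IC50 from Hill plot, 2-parameter model.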

Entries after “also recorded” stand apart in the source; their conditions may differ.

T2 sequence (Q9Y233 other isoform, or with tags, fused parts or gaps): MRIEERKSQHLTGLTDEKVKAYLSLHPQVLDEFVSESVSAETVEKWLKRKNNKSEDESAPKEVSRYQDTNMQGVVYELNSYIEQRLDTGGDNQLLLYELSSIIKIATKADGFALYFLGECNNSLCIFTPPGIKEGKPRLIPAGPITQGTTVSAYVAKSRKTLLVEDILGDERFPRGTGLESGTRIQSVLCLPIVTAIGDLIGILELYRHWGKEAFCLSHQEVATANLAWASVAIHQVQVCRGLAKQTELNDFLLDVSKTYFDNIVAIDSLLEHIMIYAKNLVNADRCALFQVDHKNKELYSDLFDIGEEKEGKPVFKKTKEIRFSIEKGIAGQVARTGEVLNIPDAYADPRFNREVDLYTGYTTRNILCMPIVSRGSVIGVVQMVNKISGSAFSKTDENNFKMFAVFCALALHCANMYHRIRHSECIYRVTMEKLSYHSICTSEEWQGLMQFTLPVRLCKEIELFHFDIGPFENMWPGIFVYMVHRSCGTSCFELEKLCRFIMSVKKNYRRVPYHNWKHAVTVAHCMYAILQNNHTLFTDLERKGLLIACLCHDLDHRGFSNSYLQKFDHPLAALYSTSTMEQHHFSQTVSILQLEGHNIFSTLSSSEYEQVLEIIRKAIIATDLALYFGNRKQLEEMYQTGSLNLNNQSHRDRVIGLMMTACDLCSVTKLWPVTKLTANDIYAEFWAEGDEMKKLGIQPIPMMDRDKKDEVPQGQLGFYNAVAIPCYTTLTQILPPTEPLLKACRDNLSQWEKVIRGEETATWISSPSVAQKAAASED

`COc1ccc2nnc3c(C)nc(-c4ccccc4Cl)n3c2n1` [Example 6, 1-(2-chlorophenyl)-8-methoxy-3-methyl-imidazo[5,1-c]-pyrido[2,3-e][1,2,4]triazine]: the “effect in the forced swim test (antidepressant; immobility time)” value with mice [1] is on record as “antidepressant effect; also recorded: significant effect”. Besides, the “effect in the novel object recognition test (cognition enhancing)” value in the data set with Female Wistar-rats is listed as “significant effect”. In addition, the values for the IC50 on PDE2A (NM002599) and at PDE10A1 (AB 020593) were 3.83 nM and 20.9 nM, respectively. The “effect in the light and dark box test (anxiolytic)” value with mice [2] is “anxiolytic effect; also recorded: significant effect”.
In turn, `c1ccc(-c2ncn3c2nnc2cccnc23)cc1` [Example 125, 3-phenyl-imidazo[5,1-c]pyrido[2,3-e][1,2,4]triazine] returned a melting point of 225 to 227 °C. The IC50 at PDE2A (NM002599) was above 1000 nM. The IC50 on PDE10A1 (AB 020593) was above 1000 nM.
